Legend:
[1] = molecular target: Lysine-specific demethylase 5B (Homo sapiens, UniProt Q9UGL1); experiment: (§1) The reaction mixture was incubated at room temperature for 30 minutes, and terminated by the addition of 6 μl of 5 mM EDTA in LANCE detection buffer containing 50 nM Phycolink Streptavidin-allophycocyanin and 2 nM Europium-anti-H3K4me1-2 antibody.
[2] = molecular target: Lysine-specific demethylase 5A (Homo sapiens, UniProt P29375); experiment: as §1, with “Enzymatic Assay: The enzymatic assay of Jarid1A activity is based upon Time Resolved-Fluorescence Resonance Energy Transfer (TR-FRET) detection. […] The” for “The”
Chain of Lysine-specific demethylase 5A (P29375 whole entry): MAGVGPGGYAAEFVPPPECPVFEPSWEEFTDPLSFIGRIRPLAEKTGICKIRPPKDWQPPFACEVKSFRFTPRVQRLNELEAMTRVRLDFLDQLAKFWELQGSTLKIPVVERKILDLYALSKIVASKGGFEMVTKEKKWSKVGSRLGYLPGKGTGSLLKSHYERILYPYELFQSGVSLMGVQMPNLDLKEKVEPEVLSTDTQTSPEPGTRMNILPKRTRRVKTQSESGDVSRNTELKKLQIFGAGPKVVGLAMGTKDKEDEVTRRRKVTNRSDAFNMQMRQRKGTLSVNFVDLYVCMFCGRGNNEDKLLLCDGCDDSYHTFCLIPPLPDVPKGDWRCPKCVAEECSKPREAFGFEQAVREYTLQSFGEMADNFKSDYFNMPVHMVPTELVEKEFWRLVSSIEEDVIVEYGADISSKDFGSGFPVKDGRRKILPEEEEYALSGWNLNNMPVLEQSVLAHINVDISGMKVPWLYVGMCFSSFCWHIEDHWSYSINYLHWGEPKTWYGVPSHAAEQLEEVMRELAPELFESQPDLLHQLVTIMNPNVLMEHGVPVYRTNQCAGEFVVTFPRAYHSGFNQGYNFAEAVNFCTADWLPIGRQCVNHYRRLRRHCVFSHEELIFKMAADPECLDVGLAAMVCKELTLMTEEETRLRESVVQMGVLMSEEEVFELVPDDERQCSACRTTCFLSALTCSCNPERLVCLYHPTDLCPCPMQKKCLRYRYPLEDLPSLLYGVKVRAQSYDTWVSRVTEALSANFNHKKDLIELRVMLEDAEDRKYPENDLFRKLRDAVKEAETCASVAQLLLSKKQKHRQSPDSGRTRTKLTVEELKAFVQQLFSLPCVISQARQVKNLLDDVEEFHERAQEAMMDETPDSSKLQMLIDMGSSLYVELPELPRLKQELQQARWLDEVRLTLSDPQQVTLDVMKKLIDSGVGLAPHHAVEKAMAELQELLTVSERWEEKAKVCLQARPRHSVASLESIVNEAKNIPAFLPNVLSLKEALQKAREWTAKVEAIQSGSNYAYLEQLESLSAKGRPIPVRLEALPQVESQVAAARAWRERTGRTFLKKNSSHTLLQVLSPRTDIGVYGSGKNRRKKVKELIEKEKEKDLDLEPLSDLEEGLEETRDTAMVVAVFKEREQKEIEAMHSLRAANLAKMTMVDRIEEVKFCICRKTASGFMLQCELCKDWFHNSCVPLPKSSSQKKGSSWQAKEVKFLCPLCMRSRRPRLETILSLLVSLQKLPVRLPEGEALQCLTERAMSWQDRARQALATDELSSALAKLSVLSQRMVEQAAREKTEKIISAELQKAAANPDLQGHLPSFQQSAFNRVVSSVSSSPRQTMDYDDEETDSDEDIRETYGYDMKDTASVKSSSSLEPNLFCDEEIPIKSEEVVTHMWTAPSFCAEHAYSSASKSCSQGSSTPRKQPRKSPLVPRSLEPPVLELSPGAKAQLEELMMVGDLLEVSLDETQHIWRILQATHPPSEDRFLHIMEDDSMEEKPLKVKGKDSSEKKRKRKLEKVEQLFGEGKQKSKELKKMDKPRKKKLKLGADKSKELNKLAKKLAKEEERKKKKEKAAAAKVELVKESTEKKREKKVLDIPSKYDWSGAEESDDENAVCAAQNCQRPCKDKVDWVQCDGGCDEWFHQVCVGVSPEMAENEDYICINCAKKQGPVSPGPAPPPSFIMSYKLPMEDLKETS

Chain of Lysine-specific demethylase 5B (Q9UGL1 whole entry): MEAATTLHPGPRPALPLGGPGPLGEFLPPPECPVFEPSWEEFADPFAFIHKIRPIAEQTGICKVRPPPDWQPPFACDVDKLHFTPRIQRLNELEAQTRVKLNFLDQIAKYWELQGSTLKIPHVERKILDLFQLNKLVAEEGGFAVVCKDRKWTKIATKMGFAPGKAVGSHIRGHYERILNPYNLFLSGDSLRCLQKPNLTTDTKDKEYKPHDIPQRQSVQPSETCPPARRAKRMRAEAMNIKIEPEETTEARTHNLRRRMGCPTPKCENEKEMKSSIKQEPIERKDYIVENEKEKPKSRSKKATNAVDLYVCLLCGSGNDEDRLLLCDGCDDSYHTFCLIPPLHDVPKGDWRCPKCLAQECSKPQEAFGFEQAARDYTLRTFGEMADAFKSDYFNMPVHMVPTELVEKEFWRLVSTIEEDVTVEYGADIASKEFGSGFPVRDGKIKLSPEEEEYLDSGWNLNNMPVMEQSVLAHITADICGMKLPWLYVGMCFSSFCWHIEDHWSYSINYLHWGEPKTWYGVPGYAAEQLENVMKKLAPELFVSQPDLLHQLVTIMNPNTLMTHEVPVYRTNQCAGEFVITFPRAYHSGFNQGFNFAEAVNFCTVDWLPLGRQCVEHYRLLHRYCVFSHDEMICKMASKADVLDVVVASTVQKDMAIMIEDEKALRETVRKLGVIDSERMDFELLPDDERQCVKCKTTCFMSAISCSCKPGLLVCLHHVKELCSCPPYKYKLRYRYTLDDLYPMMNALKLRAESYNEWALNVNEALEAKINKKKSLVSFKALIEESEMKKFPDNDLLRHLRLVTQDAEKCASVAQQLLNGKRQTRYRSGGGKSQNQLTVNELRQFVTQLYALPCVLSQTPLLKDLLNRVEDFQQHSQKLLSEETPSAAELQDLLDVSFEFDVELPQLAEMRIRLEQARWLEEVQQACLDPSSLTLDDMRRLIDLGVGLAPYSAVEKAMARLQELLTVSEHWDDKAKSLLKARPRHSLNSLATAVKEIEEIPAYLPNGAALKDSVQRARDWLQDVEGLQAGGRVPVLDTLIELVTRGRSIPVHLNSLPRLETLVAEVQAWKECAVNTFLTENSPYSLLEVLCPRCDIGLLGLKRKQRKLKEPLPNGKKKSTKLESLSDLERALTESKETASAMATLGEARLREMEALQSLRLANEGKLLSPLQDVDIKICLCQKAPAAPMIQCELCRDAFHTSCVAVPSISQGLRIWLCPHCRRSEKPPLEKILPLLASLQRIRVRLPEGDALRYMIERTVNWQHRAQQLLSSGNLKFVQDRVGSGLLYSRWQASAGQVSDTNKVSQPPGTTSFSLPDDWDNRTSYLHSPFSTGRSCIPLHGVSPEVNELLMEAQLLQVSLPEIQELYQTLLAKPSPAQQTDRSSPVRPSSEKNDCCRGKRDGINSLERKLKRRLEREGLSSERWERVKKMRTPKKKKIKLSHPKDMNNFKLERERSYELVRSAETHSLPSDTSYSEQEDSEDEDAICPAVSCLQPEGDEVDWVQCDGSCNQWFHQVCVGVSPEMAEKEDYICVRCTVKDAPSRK

SMILES: CCCn1nc(Nc2cnccc2C(=O)O)c2cccc(C)c21
- IC50 [1]: < 0.1 µM
- IC50 [2]: < 0.1 µM
